This is an account of results in patent publication US6716851B2, “Substituted 2-aryl-4-arylaminopyrimidines and analogs as activators or caspases and inducers of apoptosis and the use thereof” (Cytovia, Inc., priority 2000, dated 2004).

SMILES strings stand for the structures. Some results are limits rather than exact numbers.

Assay [1] concerns T-47D cells. As to the kind of experiment: Caspase cascade activation (N-(Ac-DEVD)-N'-ethoxycarbonyl-R110 fluorogenic substrate) in T-47D cells. To be noted: 48 h incubation; for EC50: Homo sapiens, T47D, caspase activation potency, read-out: T47 EC50; for T47 Ratio 48 hr: caspase activity: ratio of net RFU of test compound to control. It counts as cell-based, Human. A digest of the protocol:
(§1)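 Cells (0.65×10^6/ml) exposed 48 h at 37 °C to compound (0.016-10 μM final), then lysed with 14 μM DEVD-R110 substrate buffer (PIPES pH 7.2, DTT, lysolecithin) for 3 h at room temperature. Net fluorescence (485/530 nm) relative to control; EC50 by sigmoidal dose-response.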

In assay [2] the test system is ZR-75-1 cells. As to the kind of experiment: Caspase cascade activation (N-(Ac-DEVD)-N'-ethoxycarbonyl-R110 fluorogenic substrate) in ZR-75-1 cells. It counts as cell-based, Human. The following applies: ZR-75-1, 48 h incubation; for EC50: Homo sapiens, caspase activation potency; for ZR Ratio 48 hr: caspase activity: ratio of net RFU of test compound to control. A digest of the protocol:
as §1

Take `COc1ccc(C)cc1Nc1cc(C(F)(F)F)nc(-c2ccccn2)n1` [Example 190, 4-(2-Methoxy-5-methylanilino)-2-(2-pyridinyl)-6-trifluoromethylpyrimidine]: in assay [1], the EC50 came to 29 nM and the “T47 Ratio 48 hr” value is reported as 19.3. In addition, in assay [2], the EC50 amounted to 32 nM and the “ZR Ratio 48 hr” value was determined as 16.7.
The like results for `COc1ccc(Cl)cc1Nc1cc(C(F)(F)F)nc(-c2ccncc2)n1` [Example 162, 4-(5-Chloro-2-methoxyanilino)-2-(4-pyridinyl)-6-trifluoromethyl-pyrimidine] were, in that order, 272 nM, 11.3, 360 nM and 7.3.
On to `Cc1ccc(C)c(Nc2cc(-c3ccccn3)nc(-c3ccccn3)n2)c1` [Example 114, 4-(2,5-Dimethylanilino)-2,6-di(2-pyridinyl)pyrimidine], for which, in assay [1], the EC50 came to 2540 nM and the “T47 Ratio 48 hr” value is listed as 3.6. Besides, in assay [2], the response was half-maximal at 2800 nM (EC50) and the “ZR Ratio 48 hr” value amounted to 3.7.
In the case of `Cc1cc2cc(Nc3cc(C(F)(F)F)nc(-c4cccnc4)n3)ccc2[nH]1` [Example 213, 4-(2-Methyl-indol-5-ylamino)-2-(3-pyridinyl)-6-trifluoromethylpyrimidine], in assay [1], the EC50 was determined as 2680 nM and the “T47 Ratio 48 hr” value is 14.1. Moreover, in assay [2], the EC50 was 1770 nM and the “ZR Ratio 48 hr” value is reported as 9.9.
Regarding `COc1ccc(OC)c(Nc2cc(C)nc(-c3ccccn3)n2)c1` [Example 21, 4-(2,5-Dimethoxyanilino)-6-methyl-2-(2-pyridinyl)pyrimidine], in assay [1], the EC50 is less than 156 nM and the “T47 Ratio 48 hr” value was determined as 15.5. Also, in assay [2], the EC50 is less than 156 nM and the “ZR Ratio 48 hr” value is recorded as 12.0.
In the case of `Cc1cc(Nc2cc(C(F)(F)F)nc(-c3cccnc3)n2)c(C)cc1O` [Example 201, 4-(2,5-Dimethyl-4-hydroxyanilino)-2-(3-pyridinyl)-6-trifluoromethylpyrimidine], in assay [1], the EC50 came to 333 nM and the “T47 Ratio 48 hr” value turned out to be 15.7. Further, in assay [2], it took 173 nM to reach a half-maximal effect (EC50) and the “ZR Ratio 48 hr” value is listed as 4.8.
As to `COc1ccc(Cl)c(Nc2cc(C(F)(F)F)nc(-c3ccc(C(F)(F)F)nc3)n2)c1` [Example 125, 4-(2-Chloro-5-methoxyanilino)-2-[6-(trifluoromethyl)-3-pyridinyl]-6-(trifluoromethyl)pyrimidine], in assay [1], the EC50 was 3470 nM and the “T47 Ratio 48 hr” value is recorded as 4.4. Moreover, in assay [2], the response was half-maximal at 2240 nM (EC50) and the “ZR Ratio 48 hr” value is given as 8.1.
`COc1cc(C)c(Nc2cc(C(F)(F)F)nc(-c3cccnc3)n2)cc1OC` [Example 157, 4-(4,5-Dimethoxy-2-methylanilino)-2-(3-pyridinyl)-6-(trifluoromethyl)pyrimidine]: in assay [1], the EC50 came out at 43 nM and the “T47 Ratio 48 hr” value is reported as 6.6. Moreover, in assay [2], the EC50 was determined as 197 nM and the “ZR Ratio 48 hr” value was determined as 6.4.
Take `COc1ccc(OC)c(Nc2cc(C(F)(F)F)nc(-c3ccccn3)n2)c1` [Example 63, 4-(2,5-Dimethoxyanilino)-2-(2-pyridinyl)-6-(trifluoromethyl)pyrimidine]: in assay [1], the EC50 was 18 nM and the “T47 Ratio 48 hr” value is recorded as 8.9. In assay [2], a half-maximal response (EC50) required 43 nM and the “ZR Ratio 48 hr” value was found to be 9.6.
With `Cc1ccc(O)cc1Nc1cc(C(F)(F)F)nc(-c2ccncc2)n1` [Example 118, 4-(5-Hydroxy-2-methylanilino)-2-(4-pyridinyl)-6-(trifluoromethyl)pyrimidine], in assay [1], the EC50 came out at 34 nM and the “T47 Ratio 48 hr” value turned out to be 8.8. In assay [2], the EC50 was 31 nM and the “ZR Ratio 48 hr” value was 9.9.
As to `COc1ccc(Cl)c(Nc2cc(C(F)(F)F)nc(-c3ccccn3)n2)c1` [Example 95, 4-(2-Chloro-5-methoxyanilino)-2-(2-pyridinyl)-6-(trifluoromethyl)pyrimidine], in assay [1], the half-maximal effective concentration (EC50) came out at 113 nM and the “T47 Ratio 48 hr” value is given as 11.6. In assay [2], a half-maximal effect (EC50) was put at 148 nM and the “ZR Ratio 48 hr” value is reported as 8.6.
Regarding `COc1cccc(Nc2cc(-c3ccccn3)nc(-c3ccccn3)n2)c1` [Example 109, 4-(3-Methoxyanilino)-2,6-di(2-pyridinyl)pyrimidine], in assay [1], the EC50 is 1500 nM and the “T47 Ratio 48 hr” value came to 3.9. In assay [2], the EC50 was 2590 nM and the “ZR Ratio 48 hr” value was determined as 3.6.
The like results for `O=S(=O)(c1ccccc1)c1cccc(Nc2cc(C(F)(F)F)nc(-c3cccnc3)n2)c1` [Example 65, 4-[3-(Phenylsulfone)anilino]-2-(3-pyridinyl)-6-(trifluoromethyl)pyrimidine] were, in that order, greater than 5000 nM, 1.7, greater than 5000 nM and 1.7.
The like results for `COc1cc(C)c(Nc2cc(C(F)(F)F)nc(-c3ccncc3)n2)cc1OC.Cl` [Example 154, 4-(4,5-Dimethoxy-2-methylanilino)-2-(4-pyridinyl)-6-(trifluoromethyl)pyrimidine hydrochloride] were, in that order, 22 nM, 6.1, 14 nM and 7.9.
As for `O=[N+]([O-])c1cccc(-c2cccc(Nc3cc(C(F)(F)F)nc(-c4cccnc4)n3)c2)c1` [Example 61, 4-[3-(3-Nitrophenyl)anilino]-2-(3-pyridinyl)-6-(trifluoromethyl)pyrimidine], in assay [1], the EC50 is greater than 5000 nM and the “T47 Ratio 48 hr” value is 1.8. Further, in assay [2], the EC50 is greater than 5000 nM and the “ZR Ratio 48 hr” value worked out at 1.2.
`COc1ccc(C)cc1Nc1cc(C(F)(F)F)nc(-c2ccncc2)n1` [Example 116, 4-(2-Methoxy-5-methylanilino)-2-(4-pyridinyl)-6-(trifluoromethyl)pyrimidine]: in assay [1], the EC50 came out at 71 nM and the “T47 Ratio 48 hr” value is reported as 13.7. Also, in assay [2], the EC50 turned out to be 73 nM and the “ZR Ratio 48 hr” value was 8.8.
As to `Cc1ccc(O)cc1Nc1cc(C(F)(F)F)nc(-c2cccnc2)n1` [Example 117, 4-(5-Hydroxy-2-methylanilino)-2-(3-pyridinyl)-6-(trifluoromethyl)pyrimidine], in assay [1], the EC50 is 138 nM and the “T47 Ratio 48 hr” value was determined as 11.3. Further, in assay [2], the concentration giving a half-maximal response (EC50) was found to be 276 nM and the “ZR Ratio 48 hr” value is reported as 6.3.
Regarding `COc1ccc(OC)c(Nc2cc(-c3ccccn3)nc(-c3ccccn3)n2)c1` [Example 110, 4-(2,5-Dimethoxyanilino)-2,6-di(2-pyridinyl)pyrimidine], in assay [1], the EC50 came to 576 nM and the “T47 Ratio 48 hr” value is 8.9. Moreover, in assay [2], the EC50 came to 648 nM and the “ZR Ratio 48 hr” value worked out at 11.6.
As for `COc1ccc(Cl)c(Nc2cc(C(F)(F)F)nc(-c3ccncc3)n2)c1` [Example 54, 4-(2-Chloro-5-methoxyanilino)-2-(4-pyridinyl)-6-(trifluoromethyl)pyrimidine], in assay [1], the EC50 turned out to be 99 nM and the “T47 Ratio 48 hr” value turned out to be 10.5. For the same compound, in assay [2], the response was half-maximal at 101 nM (EC50) and the “ZR Ratio 48 hr” value was 5.9.
For `COCc1cc(Nc2cccc(OC)c2)nc(-c2csc(C)n2)n1` [Example 44, 4-(3-Methoxyanilino)-6-(methoxymethyl)-2-(2-methyl-1-3-thiazol-4-yl)pyrimidine], in assay [1], the EC50 is greater than 5000 nM and the “T47 Ratio 48 hr” value is reported as 1.6. Also, in assay [2], the EC50 is greater than 5000 nM and the “ZR Ratio 48 hr” value was determined as 1.9.

In general, EC50 refers to the concentration giving half of the maximal effect.
